Assay results as given in US20100137449A1, “SUBSTITUTED 1,3-CYCLOPENTADIONE MULTI-TARGET PROTEIN KINASE MODULATORS OF CANCER, ANGIOGENESIS AND THE INFLAMMATORY PATHWAYS ASSOCIATED THEREWITH” (METAPROTEOMICS, LLC, priority 2007, published 2010).

Tests used:
Experiment in all cases: KinaseProfiler Assay
Abl(M351T)(h) = Abl(M351T)(h) (Homo sapiens, UniProt P00519, M351T)
Arg(m) = Arg(m) (Mus musculus, UniProt Q4JIM5)
CaMKIIδ(h) = CaMKIIδ(h) (Homo sapiens, UniProt Q13557)
cKit(D816V)(h) = cKit(D816V)(h) (Homo sapiens, UniProt P10721, D816V)
EGFR(T790M, L858R)(h) = EGFR(T790M, L858R)(h) (Homo sapiens, UniProt P00533, L858R/T790M)
EphA3(h) = target: T1, EphA3(h) (Homo sapiens, UniProt P29320)
T1 sequence (P29320 21-983): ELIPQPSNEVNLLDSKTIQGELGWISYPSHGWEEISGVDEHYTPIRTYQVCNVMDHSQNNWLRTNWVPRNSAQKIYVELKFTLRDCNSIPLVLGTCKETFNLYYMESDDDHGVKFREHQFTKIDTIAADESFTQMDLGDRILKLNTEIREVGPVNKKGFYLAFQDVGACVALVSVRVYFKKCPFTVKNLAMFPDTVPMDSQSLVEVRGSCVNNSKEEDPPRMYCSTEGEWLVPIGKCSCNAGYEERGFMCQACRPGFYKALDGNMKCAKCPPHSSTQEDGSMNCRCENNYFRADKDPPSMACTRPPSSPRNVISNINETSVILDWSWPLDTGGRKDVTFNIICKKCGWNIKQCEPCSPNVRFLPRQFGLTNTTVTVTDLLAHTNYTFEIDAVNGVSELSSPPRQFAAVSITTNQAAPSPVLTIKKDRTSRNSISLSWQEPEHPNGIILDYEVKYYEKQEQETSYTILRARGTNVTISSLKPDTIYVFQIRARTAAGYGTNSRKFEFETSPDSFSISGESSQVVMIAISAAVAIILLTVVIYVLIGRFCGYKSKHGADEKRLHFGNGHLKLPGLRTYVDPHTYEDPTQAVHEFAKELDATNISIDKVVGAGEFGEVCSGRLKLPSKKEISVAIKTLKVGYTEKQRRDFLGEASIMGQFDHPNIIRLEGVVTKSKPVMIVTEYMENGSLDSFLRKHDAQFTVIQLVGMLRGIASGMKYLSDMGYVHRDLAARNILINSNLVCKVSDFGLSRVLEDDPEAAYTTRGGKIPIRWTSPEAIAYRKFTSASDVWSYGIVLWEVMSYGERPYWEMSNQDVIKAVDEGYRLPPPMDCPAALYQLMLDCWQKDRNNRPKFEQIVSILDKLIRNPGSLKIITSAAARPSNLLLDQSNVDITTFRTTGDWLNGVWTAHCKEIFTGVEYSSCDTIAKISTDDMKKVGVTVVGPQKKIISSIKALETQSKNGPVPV

FGFR2(h) = FGFR2(h) (Homo sapiens, UniProt P21802)
GSK3β(h) = GSK3β(h) (Homo sapiens, UniProt P49841)
PDK1(h) = target: T2, PDK1(h) (Homo sapiens, UniProt O15530)
T2 sequence (O15530 1-556): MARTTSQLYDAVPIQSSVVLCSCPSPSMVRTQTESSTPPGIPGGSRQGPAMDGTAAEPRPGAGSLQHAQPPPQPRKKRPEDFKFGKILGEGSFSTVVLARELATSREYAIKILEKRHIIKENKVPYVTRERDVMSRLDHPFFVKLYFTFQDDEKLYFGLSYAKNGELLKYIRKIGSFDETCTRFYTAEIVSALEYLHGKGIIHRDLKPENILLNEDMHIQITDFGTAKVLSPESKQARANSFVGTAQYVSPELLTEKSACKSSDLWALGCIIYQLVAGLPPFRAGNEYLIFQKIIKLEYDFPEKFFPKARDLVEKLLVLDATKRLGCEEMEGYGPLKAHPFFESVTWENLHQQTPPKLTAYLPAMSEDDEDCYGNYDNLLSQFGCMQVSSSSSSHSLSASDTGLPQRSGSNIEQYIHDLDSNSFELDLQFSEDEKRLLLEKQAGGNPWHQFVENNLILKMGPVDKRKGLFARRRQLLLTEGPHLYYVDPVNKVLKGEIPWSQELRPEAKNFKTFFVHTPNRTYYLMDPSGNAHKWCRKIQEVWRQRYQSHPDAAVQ

PTK5(h) = PTK5(h) (Homo sapiens, UniProt P42685)
Rsk1(h) = Rsk1(h) (Homo sapiens, UniProt Q15418)

PTK5(h), sequence (P42685 whole entry): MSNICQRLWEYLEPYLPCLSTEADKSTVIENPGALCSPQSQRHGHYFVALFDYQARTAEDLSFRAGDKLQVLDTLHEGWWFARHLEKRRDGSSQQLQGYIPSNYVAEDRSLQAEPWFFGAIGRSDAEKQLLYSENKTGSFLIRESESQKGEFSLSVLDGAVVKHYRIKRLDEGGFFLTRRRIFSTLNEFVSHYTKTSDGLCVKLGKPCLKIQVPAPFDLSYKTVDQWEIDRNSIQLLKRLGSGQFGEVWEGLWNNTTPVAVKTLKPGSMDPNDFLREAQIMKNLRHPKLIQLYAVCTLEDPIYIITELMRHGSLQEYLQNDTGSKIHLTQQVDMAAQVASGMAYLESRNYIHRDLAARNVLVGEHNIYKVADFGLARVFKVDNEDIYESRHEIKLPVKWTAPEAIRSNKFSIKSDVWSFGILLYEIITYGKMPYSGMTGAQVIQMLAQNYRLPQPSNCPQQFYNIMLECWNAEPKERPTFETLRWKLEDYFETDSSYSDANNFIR
cKit(D816V)(h), sequence (P10721 26-976 D816V): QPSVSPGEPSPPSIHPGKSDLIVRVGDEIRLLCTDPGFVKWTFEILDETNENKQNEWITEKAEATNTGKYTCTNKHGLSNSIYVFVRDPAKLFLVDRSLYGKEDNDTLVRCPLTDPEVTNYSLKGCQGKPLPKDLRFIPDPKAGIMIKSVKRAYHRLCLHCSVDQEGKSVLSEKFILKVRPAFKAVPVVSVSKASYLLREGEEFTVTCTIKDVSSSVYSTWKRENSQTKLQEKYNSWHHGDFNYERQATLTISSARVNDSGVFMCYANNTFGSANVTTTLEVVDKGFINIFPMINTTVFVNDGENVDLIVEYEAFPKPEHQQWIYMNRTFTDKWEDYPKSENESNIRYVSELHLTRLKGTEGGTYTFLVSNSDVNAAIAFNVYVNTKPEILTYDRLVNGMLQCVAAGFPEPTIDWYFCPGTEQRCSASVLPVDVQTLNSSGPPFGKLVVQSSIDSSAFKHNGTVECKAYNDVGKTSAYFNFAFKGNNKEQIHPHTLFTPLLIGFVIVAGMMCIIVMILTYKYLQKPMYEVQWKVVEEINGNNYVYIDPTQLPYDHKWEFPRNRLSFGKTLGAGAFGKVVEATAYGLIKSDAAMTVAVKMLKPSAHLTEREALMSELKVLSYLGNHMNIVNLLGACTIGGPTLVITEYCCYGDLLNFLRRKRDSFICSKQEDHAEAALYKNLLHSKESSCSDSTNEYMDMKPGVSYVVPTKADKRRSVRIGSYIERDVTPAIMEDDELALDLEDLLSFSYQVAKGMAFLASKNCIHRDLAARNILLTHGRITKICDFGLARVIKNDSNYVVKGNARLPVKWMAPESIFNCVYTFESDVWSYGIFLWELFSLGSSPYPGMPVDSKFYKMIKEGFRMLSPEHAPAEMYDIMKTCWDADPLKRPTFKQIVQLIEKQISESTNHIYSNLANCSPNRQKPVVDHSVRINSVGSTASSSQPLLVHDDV
GSK3β(h), sequence (P49841 whole entry): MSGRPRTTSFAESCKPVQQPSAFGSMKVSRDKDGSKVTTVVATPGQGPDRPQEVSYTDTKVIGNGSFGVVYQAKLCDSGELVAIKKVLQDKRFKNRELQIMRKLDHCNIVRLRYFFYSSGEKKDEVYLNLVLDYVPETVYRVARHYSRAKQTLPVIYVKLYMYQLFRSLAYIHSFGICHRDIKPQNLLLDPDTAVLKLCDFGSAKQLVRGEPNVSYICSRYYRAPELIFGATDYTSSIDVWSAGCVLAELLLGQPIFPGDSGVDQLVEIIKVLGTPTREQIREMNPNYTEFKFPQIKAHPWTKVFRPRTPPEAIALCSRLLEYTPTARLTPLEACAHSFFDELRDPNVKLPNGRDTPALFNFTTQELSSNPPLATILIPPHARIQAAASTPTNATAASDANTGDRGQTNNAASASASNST
Arg(m), sequence (Q4JIM5 whole entry): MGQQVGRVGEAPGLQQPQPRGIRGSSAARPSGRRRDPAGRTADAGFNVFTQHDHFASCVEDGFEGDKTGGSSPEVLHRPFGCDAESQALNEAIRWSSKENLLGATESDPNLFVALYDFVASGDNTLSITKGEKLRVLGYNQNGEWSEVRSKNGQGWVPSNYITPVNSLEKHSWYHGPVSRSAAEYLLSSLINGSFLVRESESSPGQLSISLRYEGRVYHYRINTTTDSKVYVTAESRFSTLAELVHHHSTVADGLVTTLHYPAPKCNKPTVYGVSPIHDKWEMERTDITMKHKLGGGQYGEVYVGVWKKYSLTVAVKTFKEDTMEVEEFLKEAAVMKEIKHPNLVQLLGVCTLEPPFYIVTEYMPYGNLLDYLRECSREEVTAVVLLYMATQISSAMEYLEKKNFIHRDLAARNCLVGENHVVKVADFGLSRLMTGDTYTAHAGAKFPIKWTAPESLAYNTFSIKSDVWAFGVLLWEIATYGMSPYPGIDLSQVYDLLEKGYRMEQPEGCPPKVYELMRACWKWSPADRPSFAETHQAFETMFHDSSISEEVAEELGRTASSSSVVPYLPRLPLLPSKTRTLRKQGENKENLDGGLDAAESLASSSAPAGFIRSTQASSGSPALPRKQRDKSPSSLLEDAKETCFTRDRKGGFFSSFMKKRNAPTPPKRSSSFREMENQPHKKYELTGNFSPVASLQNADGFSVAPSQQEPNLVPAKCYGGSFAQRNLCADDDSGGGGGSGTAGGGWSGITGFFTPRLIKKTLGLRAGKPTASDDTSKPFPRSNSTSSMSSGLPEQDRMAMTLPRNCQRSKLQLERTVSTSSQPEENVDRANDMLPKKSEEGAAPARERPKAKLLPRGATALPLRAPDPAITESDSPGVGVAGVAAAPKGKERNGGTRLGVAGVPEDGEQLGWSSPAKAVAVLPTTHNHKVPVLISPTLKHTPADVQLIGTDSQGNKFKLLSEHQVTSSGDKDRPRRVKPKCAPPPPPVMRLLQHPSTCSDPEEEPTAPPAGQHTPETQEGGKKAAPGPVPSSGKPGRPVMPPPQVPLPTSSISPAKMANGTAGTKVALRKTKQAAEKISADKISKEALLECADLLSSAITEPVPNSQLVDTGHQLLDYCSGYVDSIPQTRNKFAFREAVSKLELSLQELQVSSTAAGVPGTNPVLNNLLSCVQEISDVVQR
FGFR2(h), sequence (P21802 22-821): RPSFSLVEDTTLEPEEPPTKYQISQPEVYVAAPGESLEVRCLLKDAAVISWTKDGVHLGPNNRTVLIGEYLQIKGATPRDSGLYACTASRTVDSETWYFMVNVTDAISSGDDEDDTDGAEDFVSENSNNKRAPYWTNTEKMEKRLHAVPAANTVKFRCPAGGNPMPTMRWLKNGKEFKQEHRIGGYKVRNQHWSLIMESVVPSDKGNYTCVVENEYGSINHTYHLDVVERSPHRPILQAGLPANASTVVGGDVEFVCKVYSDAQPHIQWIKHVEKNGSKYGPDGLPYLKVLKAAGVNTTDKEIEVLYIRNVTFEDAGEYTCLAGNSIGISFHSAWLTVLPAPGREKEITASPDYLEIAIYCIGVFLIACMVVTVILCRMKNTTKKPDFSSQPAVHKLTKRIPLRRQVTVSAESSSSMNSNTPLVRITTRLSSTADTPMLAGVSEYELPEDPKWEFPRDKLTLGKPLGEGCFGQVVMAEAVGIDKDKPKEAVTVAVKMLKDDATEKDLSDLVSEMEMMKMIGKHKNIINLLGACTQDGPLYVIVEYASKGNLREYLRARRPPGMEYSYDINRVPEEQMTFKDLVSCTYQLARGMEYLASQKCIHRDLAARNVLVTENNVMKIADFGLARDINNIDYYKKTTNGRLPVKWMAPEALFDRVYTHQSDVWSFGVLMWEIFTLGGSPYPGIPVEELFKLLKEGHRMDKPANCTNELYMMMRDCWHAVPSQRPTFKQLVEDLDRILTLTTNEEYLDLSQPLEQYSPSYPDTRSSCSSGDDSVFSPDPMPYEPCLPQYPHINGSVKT
EGFR(T790M, L858R)(h), sequence (P00533 25-1210 T790M/L858R): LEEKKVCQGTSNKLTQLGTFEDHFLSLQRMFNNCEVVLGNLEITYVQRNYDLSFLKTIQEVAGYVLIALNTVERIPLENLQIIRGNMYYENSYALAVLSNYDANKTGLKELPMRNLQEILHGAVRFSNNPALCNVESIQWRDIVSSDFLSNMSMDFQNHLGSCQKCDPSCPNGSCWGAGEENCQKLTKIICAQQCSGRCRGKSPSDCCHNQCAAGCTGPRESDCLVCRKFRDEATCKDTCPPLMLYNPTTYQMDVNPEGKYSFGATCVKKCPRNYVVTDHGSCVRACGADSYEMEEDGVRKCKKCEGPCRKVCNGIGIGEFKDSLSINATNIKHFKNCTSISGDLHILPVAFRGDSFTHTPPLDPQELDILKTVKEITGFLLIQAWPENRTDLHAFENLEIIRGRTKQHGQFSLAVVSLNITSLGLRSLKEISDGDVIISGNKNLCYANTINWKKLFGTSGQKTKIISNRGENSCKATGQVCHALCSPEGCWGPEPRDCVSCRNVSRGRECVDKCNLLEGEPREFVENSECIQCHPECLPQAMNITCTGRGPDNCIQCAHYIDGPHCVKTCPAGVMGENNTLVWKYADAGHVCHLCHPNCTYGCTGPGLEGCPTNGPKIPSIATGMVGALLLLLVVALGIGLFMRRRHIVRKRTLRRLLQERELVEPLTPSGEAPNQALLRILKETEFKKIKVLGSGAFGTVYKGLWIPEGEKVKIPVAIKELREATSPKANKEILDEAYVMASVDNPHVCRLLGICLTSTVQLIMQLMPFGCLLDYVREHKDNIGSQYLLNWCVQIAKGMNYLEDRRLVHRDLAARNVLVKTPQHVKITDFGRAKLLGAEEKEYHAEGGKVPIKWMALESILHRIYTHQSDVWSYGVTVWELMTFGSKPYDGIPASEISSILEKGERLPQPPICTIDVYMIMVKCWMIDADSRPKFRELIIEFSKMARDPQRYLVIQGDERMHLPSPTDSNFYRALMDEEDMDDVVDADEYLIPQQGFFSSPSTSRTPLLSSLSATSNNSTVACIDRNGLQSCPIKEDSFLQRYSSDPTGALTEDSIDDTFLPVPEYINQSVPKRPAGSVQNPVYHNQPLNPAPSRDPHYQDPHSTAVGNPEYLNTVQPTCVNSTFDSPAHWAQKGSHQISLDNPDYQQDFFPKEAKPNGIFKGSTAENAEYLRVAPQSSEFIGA

CC(C)CCC(=O)[C@]1(O)C(O)=C(C(=O)C(C)C)C(=O)[C@H]1CCC(C)C [TH2, tetrahydroiso-cohumulone]
kinase inhibition (Abl(M351T)(h); 1 μg/ml): 92% of control
kinase inhibition (Abl(M351T)(h); 5 μg/ml): 95% of control
kinase inhibition (Abl(M351T)(h); 25 μg/ml): 89% of control
kinase inhibition (Abl(M351T)(h); 50 μg/ml): 75% of control
kinase inhibition (Abl(M351T)(h); 100 μg/ml): 56% of control
kinase inhibition (Arg(m); 1 μg/ml): 100% of control
kinase inhibition (Arg(m); 5 μg/ml): 101% of control
kinase inhibition (Arg(m); 25 μg/ml): 103% of control
kinase inhibition (Arg(m); 50 μg/ml): 88% of control
kinase inhibition (Arg(m); 100 μg/ml): 62% of control
kinase inhibition (CaMKIIδ(h); 1 μg/ml): 99% of control
kinase inhibition (CaMKIIδ(h); 5 μg/ml): 99% of control
kinase inhibition (CaMKIIδ(h); 25 μg/ml): 100% of control
kinase inhibition (CaMKIIδ(h); 50 μg/ml): 91% of control
kinase inhibition (CaMKIIδ(h); 100 μg/ml): 87% of control
kinase inhibition (cKit(D816V)(h); 1 μg/ml): 109% of control
kinase inhibition (cKit(D816V)(h); 5 μg/ml): 105% of control
kinase inhibition (cKit(D816V)(h); 25 μg/ml): 98% of control
kinase inhibition (cKit(D816V)(h); 50 μg/ml): 82% of control
kinase inhibition (cKit(D816V)(h); 100 μg/ml): 87% of control
kinase inhibition (EGFR(T790M, L858R)(h); 1 μg/ml): 104% of control
kinase inhibition (EGFR(T790M, L858R)(h); 5 μg/ml): 109% of control
kinase inhibition (EGFR(T790M, L858R)(h); 25 μg/ml): 95% of control
kinase inhibition (EGFR(T790M, L858R)(h); 50 μg/ml): 94% of control
kinase inhibition (EGFR(T790M, L858R)(h); 100 μg/ml): 82% of control
kinase inhibition (EphA3(h); 1 μg/ml): 93% of control
kinase inhibition (EphA3(h); 5 μg/ml): 91% of control
kinase inhibition (EphA3(h); 25 μg/ml): 98% of control
kinase inhibition (EphA3(h); 50 μg/ml): 87% of control
kinase inhibition (EphA3(h); 100 μg/ml): 84% of control
kinase inhibition (FGFR2(h); 1 μg/ml): 111% of control
kinase inhibition (FGFR2(h); 5 μg/ml): 98% of control
kinase inhibition (FGFR2(h); 25 μg/ml): 102% of control
kinase inhibition (FGFR2(h); 50 μg/ml): 96% of control
kinase inhibition (FGFR2(h); 100 μg/ml): 78% of control
kinase inhibition (GSK3β(h); 1 μg/ml): 98% of control
kinase inhibition (GSK3β(h); 5 μg/ml): 86% of control
kinase inhibition (GSK3β(h); 25 μg/ml): 55% of control
kinase inhibition (GSK3β(h); 50 μg/ml): 44% of control
kinase inhibition (GSK3β(h); 100 μg/ml): 40% of control
kinase inhibition (PDK1(h); 1 μg/ml): 122% of control
kinase inhibition (PDK1(h); 5 μg/ml): 123% of control
kinase inhibition (PDK1(h); 25 μg/ml): 102% of control
kinase inhibition (PDK1(h); 50 μg/ml): 87% of control
kinase inhibition (PDK1(h); 100 μg/ml): 69% of control
kinase inhibition (PTK5(h); 1 μg/ml): 116% of control
kinase inhibition (PTK5(h); 5 μg/ml): 105% of control
kinase inhibition (PTK5(h); 25 μg/ml): 113% of control
kinase inhibition (PTK5(h); 50 μg/ml): 112% of control
kinase inhibition (PTK5(h); 100 μg/ml): 116% of control
kinase inhibition (Rsk1(h); 1 μg/ml): 97% of control
kinase inhibition (Rsk1(h); 5 μg/ml): 95% of control
kinase inhibition (Rsk1(h); 25 μg/ml): 65% of control
kinase inhibition (Rsk1(h); 50 μg/ml): 53% of control
kinase inhibition (Rsk1(h); 100 μg/ml): 32% of control
